Assay results reported in the supplement of paper PMC10307832.

compound: CC1=C(C(=NN1)C)CC2=C(C3=C(S2)N(C(=O)N(C3=O)C)CC(C)C)C(=O)N4C[C@@H](CO4)O + C[C@@H](Oc1cc(-c2cnn(C3CCNCC3)c2)cnc1N)c1c(Cl)ccc(F)c1Cl [Crizotinib] (partner 1 µM); experiment: relative viability (nuclei count vs DMSO), 5 days (fraction); higher = more cells survive; details: first compound 0.0025 µM
Summary of the method: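 Relative viability is defined as nuclei in treated wells over nuclei in vehicle wells. Duplicate plates were run and medians reported. Lung cancer cell lines in 1536-well plates were dosed by pin tool one day after seeding, with one drug or with a fixed anchor-drug dose plus five library-drug doses (not always all listed) in √10 steps, and nuclei were counted after 5 days.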

Cell Line	relative viability
HCC-827	0.96
LXF-289	0.817
NCI-H23	0.519
NCI-H647	1.26
CAL-12T	0.76
NCI-H1651	0.807
EPLC-272H	0.821
NCI-H2228	0.421
NCI-H1792	1.04
NCI-H1355	1.07
NCI-H3122	0.281
NCI-H1437	0.967
NCI-H1755	0.876
NCI-H2023	0.76
HCC-15	0.826
PC-14	0.91
EKVX	1.09
LC-2-ad	0.486
NCI-H1563	0.91
NCI-H1944	1.15
NCI-H1975	0.942
RERF-LC-KJ	0.862
ABC-1	1.24
NCI-H358	0.639
NCI-H650	0.949
PC-3 [JPC-3]	1.02

same assay, conditions: first compound 0.007906 µM

Cell Line	relative viability
HCC-827	0.965
LXF-289	0.735
NCI-H23	0.613
NCI-H647	1.32
CAL-12T	0.724
NCI-H1651	0.857
EPLC-272H	0.863
NCI-H2228	0.523
NCI-H1792	0.976
NCI-H1355	1.09
NCI-H3122	0.26
NCI-H1437	0.928
NCI-H1755	0.952
NCI-H2023	0.731
HCC-15	0.71
PC-14	0.904
EKVX	1.11
LC-2-ad	0.451
NCI-H1563	0.92
NCI-H1944	1.25
NCI-H1975	1
RERF-LC-KJ	0.819
ABC-1	0.905
NCI-H358	0.543
NCI-H650	0.75
PC-3 [JPC-3]	0.898

same assay, conditions: first compound 0.025 µM

Cell Line	relative viability
HCC-827	0.924
LXF-289	0.818
NCI-H23	0.499
NCI-H647	1.02
CAL-12T	0.558
NCI-H1651	0.822
EPLC-272H	0.904
NCI-H2228	0.473
NCI-H1792	0.901
NCI-H1355	1.09
NCI-H3122	0.276
NCI-H1437	0.875
NCI-H1755	0.941
NCI-H2023	0.705
HCC-15	0.781
PC-14	0.881
EKVX	0.988
LC-2-ad	0.411
NCI-H1563	0.87
NCI-H1944	1.15
NCI-H1975	1
RERF-LC-KJ	0.823
ABC-1	1.01
NCI-H358	0.566
NCI-H650	0.631
PC-3 [JPC-3]	0.93

same assay, conditions: first compound 0.07906 µM

Cell Line	relative viability
HCC-827	0.929
LXF-289	0.789
NCI-H23	0.568
NCI-H647	1.05
CAL-12T	0.667
NCI-H1651	0.804
EPLC-272H	0.773
NCI-H2228	0.505
NCI-H1792	0.855
NCI-H1355	1.05
NCI-H3122	0.259
NCI-H1437	0.949
NCI-H1755	0.877
NCI-H2023	0.691
HCC-15	0.757
PC-14	0.932
EKVX	0.962
LC-2-ad	0.454
NCI-H1563	0.889
NCI-H1944	1.06
NCI-H1975	0.869
RERF-LC-KJ	0.865
ABC-1	0.956
NCI-H358	0.66
NCI-H650	0.77
PC-3 [JPC-3]	0.861

same assay, conditions: first compound 0.25 µM

Cell Line	relative viability
HCC-827	1
LXF-289	0.818
NCI-H23	0.604
NCI-H647	1.38
CAL-12T	0.817
NCI-H1651	0.786
EPLC-272H	1.1
NCI-H2228	0.469
NCI-H1792	0.786
NCI-H1355	1.14
NCI-H3122	0.299
NCI-H1437	1.09
NCI-H1755	0.967
NCI-H2023	0.659
HCC-15	0.947
PC-14	0.954
EKVX	0.992
LC-2-ad	0.638
NCI-H1563	0.892
NCI-H1944	1.08
NCI-H1975	1.08
RERF-LC-KJ	0.88
ABC-1	0.992
NCI-H358	0.7
NCI-H650	0.773
